Data reported in patent US12365696B2, “Small-molecule focal adhesion kinase (FAK) inhibitors” (DANA-FARBER CANCER INSTITUTE, INC., priority 2019, dated 2025).

Experiments:
Assay in all cases: KINOMEscan
Format in all cases: binding
[1] = target: IGF1R (Homo sapiens (Human), UniProt P08069); details: 10000 nM, read-out: Percent Control
[2] = target: ERN1 (Homo sapiens (Human), UniProt O75460); details: ERN1, 10000 nM; read-out: Percent Control
[3] = target: CAMKK1 (Homo sapiens (Human), UniProt Q8N5S9); details: CAMKK1, 10000 nM; read-out: Percent Control
[4] = target: SRPK1 (Homo sapiens (Human), UniProt Q96SB4); details: SRPK1, 10000 nM; read-out: Percent Control
[5] = target: ABL1-nonphosphorylated (Homo sapiens (Human), UniProt P00519); details: 10000 nM, read-out: Percent Control
[6] = target: PKMYT1 (Homo sapiens (Human), UniProt Q99640); details: PKMYT1, 10000 nM; read-out: Percent Control
[7] = target: ADCK3 (Homo sapiens (Human), UniProt Q8NI60); details: ADCK3, 10000 nM; read-out: Percent Control
[8] = target: PRKCD (Homo sapiens (Human), UniProt Q05655); details: 10000 nM, read-out: Percent Control
[9] = target: DAPK2 (Homo sapiens (Human), UniProt Q9UIK4); details: DAPK2, 10000 nM; read-out: Percent Control
[10] = target: EGFR(L858R) (Homo sapiens (Human), UniProt P00533, L858R); details: 10000 nM, read-out: Percent Control
[11] = target: GRK4 (Homo sapiens (Human), UniProt P32298); details: GRK4, 10000 nM; read-out: Percent Control
[12] = target: STK35 (Homo sapiens (Human), UniProt Q8TDR2); details: STK35, 10000 nM; read-out: Percent Control
[13] = target: CDK7 (Homo sapiens (Human), UniProt P50613); details: CDK7, 10000 nM; read-out: Percent Control
[14] = target: EPHB2 (Homo sapiens (Human), UniProt P29323); details: EPHB2, 10000 nM; read-out: Percent Control
[15] = target: PAK3 (Homo sapiens (Human), UniProt O75914); details: PAK3, 10000 nM; read-out: Percent Control
[16] = target: MAST1 (Homo sapiens (Human), UniProt Q9Y2H9); details: MAST1, 10000 nM; read-out: Percent Control
[17] = target: DYRK1B (Homo sapiens (Human), UniProt Q9Y463); details: 10000 nM, read-out: Percent Control
[18] = target: FGFR4 (Homo sapiens (Human), UniProt P22455); details: FGFR4, 10000 nM; read-out: Percent Control
[19] = target: CDKL2 (Homo sapiens (Human), UniProt Q92772); details: CDKL2, 10000 nM; read-out: Percent Control
[20] = target: JAK1(JH1domain-catalytic) (Homo sapiens (Human), UniProt P23458); details: 10000 nM, read-out: Percent Control
Sequence of JAK1(JH1domain-catalytic) (P23458 875-1153): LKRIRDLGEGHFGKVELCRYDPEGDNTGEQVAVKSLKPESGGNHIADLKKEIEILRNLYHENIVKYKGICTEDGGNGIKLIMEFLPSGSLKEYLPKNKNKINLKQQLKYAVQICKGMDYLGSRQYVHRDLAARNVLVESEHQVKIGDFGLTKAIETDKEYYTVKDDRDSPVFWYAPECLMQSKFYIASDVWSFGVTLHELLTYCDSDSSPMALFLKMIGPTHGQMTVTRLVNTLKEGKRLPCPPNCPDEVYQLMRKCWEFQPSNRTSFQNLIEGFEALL

[21] = target: SgK110 (Homo sapiens (Human), UniProt P0C264); details: SgK110, 10000 nM; read-out: Percent Control
[22] = target: ROCK1 (Homo sapiens (Human), UniProt Q13464); details: ROCK1, 10000 nM; read-out: Percent Control
[23] = target: DRAK2 (Homo sapiens (Human), UniProt O94768); details: DRAK2, 10000 nM; read-out: Percent Control
Sequence of DRAK2 (O94768 whole entry): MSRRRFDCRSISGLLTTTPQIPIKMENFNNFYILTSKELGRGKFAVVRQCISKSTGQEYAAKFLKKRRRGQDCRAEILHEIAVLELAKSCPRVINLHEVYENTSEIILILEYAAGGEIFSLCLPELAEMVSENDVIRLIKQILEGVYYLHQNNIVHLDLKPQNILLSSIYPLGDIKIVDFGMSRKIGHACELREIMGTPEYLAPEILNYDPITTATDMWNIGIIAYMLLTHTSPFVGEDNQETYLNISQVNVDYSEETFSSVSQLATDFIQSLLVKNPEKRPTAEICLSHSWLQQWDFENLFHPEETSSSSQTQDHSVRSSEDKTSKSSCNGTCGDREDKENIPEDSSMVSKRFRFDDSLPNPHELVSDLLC

[24] = target: SGK2 (Homo sapiens (Human), UniProt Q9HBY8); details: SGK2, 10000 nM; read-out: Percent Control
Sequence of SGK2 (Q9HBY8 whole entry): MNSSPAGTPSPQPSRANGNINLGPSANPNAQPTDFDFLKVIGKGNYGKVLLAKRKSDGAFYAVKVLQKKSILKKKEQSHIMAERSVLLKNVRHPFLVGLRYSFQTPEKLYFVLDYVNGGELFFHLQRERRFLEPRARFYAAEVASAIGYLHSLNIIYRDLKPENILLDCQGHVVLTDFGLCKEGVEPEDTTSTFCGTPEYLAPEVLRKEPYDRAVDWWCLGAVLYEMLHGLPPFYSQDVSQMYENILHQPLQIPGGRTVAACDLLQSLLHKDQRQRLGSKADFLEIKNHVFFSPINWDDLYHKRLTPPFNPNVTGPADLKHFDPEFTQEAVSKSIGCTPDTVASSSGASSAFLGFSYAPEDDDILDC

[25] = target: EGFR(L747-E749del, A750P) (Homo sapiens (Human), UniProt P00533, A750P/DEL747-749); details: 10000 nM, read-out: Percent Control
[26] = target: SRPK2 (Homo sapiens (Human), UniProt P78362); details: SRPK2, 10000 nM; read-out: Percent Control
Sequence of SRPK2 (P78362 whole entry): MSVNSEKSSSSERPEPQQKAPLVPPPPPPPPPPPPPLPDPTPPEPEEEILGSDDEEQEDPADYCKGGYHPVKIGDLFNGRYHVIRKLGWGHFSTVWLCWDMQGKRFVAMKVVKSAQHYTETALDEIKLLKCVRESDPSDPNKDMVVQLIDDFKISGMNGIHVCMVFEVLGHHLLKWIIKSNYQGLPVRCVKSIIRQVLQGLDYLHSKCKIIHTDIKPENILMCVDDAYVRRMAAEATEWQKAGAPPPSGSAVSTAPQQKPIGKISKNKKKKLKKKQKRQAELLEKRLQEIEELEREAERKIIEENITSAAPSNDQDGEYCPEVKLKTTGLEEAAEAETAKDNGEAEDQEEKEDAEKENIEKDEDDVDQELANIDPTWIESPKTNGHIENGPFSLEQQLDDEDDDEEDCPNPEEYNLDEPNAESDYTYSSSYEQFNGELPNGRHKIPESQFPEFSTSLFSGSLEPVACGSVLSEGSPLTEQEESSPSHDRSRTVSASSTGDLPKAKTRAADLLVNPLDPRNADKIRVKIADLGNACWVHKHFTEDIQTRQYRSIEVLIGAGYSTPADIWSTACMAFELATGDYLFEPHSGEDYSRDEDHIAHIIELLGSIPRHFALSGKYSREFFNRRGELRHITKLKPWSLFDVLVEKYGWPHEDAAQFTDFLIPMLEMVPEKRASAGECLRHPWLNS

[27] = target: CDC2L5 (Homo sapiens (Human), UniProt Q14004); details: CDC2L5, 10000 nM; read-out: Percent Control
Sequence of CDC2L5 (Q14004 whole entry, looked up): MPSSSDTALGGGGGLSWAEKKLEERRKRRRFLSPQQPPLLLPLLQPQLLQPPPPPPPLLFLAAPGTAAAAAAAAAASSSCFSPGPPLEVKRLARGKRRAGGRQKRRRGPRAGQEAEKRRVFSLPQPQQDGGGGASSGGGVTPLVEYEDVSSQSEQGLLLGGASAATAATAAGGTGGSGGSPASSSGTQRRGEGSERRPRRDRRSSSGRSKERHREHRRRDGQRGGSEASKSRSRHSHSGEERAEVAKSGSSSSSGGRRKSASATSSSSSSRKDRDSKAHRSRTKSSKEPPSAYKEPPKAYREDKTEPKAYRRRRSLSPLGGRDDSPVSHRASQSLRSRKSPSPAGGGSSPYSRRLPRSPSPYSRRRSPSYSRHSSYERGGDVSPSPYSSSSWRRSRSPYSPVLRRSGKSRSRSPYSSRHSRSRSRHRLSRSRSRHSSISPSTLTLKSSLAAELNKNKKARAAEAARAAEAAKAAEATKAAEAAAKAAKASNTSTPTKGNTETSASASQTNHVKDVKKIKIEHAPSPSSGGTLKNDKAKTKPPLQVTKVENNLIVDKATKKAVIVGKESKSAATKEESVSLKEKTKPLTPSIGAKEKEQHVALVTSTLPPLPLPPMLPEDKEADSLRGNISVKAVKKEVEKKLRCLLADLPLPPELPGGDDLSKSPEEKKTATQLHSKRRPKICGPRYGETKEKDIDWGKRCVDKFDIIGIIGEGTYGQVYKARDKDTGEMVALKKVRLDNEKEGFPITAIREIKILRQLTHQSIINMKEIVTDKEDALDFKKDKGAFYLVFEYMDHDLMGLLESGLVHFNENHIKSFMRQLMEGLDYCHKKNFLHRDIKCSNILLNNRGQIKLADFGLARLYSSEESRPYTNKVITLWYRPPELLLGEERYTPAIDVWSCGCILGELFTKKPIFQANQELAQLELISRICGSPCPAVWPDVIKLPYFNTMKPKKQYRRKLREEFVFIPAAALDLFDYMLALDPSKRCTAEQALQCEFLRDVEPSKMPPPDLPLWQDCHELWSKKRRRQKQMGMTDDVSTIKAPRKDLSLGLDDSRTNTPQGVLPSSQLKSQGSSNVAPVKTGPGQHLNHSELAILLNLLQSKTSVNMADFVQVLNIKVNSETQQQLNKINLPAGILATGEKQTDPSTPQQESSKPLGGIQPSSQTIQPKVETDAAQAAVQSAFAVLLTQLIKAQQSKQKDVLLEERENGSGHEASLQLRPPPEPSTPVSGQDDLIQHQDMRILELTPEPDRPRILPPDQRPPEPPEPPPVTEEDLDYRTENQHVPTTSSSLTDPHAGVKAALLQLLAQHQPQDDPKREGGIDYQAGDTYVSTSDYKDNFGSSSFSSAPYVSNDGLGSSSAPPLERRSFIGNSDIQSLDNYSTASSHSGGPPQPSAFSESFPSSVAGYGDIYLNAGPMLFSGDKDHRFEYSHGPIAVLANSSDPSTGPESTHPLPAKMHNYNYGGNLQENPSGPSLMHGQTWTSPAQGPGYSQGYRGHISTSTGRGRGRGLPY
Method: (§1) Selectivity profiling of compound 3 among a panel of kinases was performed with KINOMEscan® as set forth below. The KINOMEscan® screening platform employs an active site-directed competition binding assay to quantitatively measure interactions between a test compound, e.g., compound 3, and more than 450 kinases and disease-relevant mutant variants.
(§2) Screening of compound 3 was conducted at a concentration of 10 μM by Eurofins DiscoverX. Activity is measured as the ability of compound 3 to displace the kinase from a solid support relative to a negative control (i.e., DMSO). The output is % control.

[28] = target: PRP4 (Homo sapiens (Human), UniProt Q13523); details: PRP4, 10000 nM; read-out: Percent Control
Method: as §1, §2

[29] = target: EPHA7 (Homo sapiens (Human), UniProt Q15375); details: EPHA7, 10000 nM; read-out: Percent Control
Sequence of EPHA7 (Q15375 28-998): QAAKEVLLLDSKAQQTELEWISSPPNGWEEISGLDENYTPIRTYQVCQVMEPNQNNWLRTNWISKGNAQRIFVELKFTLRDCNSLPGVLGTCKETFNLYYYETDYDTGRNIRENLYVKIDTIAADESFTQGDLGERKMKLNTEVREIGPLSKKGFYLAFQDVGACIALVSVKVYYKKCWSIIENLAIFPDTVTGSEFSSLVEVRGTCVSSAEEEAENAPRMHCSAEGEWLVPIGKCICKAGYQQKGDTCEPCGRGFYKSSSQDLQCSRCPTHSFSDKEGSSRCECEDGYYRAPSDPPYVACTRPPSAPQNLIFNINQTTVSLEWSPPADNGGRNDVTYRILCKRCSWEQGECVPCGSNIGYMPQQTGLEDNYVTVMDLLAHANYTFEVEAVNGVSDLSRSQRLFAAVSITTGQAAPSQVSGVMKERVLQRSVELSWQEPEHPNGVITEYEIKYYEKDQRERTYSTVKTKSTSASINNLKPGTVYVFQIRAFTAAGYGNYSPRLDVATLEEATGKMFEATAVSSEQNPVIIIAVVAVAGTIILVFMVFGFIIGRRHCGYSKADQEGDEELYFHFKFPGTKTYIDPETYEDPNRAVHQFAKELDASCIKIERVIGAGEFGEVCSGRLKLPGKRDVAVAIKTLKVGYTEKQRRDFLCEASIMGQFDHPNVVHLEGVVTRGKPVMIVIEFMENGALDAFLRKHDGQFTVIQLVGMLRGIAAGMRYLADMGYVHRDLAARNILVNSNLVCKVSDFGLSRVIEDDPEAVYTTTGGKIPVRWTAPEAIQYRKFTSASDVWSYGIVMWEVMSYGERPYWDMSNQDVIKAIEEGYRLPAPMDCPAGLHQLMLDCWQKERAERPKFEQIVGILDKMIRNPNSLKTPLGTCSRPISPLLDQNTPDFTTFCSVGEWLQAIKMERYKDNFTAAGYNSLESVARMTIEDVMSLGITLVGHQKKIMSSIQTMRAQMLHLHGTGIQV

[30] = target: MUSK (Homo sapiens (Human), UniProt O15146); details: 10000 nM, read-out: Percent Control
Sequence of MUSK (O15146 24-869): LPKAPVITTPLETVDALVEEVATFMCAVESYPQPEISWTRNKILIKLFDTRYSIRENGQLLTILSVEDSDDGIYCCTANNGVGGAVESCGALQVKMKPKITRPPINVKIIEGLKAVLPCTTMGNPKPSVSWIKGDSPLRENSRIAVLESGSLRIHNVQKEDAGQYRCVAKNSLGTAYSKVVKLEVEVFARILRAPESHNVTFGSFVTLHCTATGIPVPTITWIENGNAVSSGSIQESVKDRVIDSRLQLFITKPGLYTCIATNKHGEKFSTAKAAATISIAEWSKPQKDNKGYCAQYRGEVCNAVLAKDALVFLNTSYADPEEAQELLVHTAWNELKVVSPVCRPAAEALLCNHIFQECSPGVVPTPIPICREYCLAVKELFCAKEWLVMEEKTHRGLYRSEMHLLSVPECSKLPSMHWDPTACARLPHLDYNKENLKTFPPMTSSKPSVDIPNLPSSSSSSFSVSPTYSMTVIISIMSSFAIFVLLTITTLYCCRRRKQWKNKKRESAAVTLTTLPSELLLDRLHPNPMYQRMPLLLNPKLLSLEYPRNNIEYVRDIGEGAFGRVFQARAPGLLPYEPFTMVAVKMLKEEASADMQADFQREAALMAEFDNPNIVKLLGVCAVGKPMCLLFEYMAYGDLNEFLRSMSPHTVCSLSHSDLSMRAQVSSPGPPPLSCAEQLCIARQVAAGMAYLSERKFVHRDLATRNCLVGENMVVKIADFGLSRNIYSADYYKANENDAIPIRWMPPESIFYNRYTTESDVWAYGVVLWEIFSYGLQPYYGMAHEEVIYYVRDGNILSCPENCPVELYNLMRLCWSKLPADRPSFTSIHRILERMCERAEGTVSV

Molecule COc1cc(N2CCC(N3CCN(C)CC3)CC2)ccc1Nc1ncc2c(n1)N(C)c1sc(C)nc1C(=O)N2 [Compound 3, 6-((2-methoxy-4-(4-(4-methylpiperazin-1-yl)piperidin-1-yl)phenyl)amino)-2,4-dimethyl-4,9-dihydro-10H-pyrimido[5,4-b]thiazolo[5,4-e][1,4]diazepin-10-one] has a remaining binding at 10 µM [1] of 86%, a remaining binding at 10 µM [2] of 93% and a remaining binding at 10 µM [3] of 84%. It also gave a remaining binding at 10 µM [4] of 100%, a remaining binding at 10 µM [5] of 25% and a remaining binding at 10 µM [6] of 90%. It also gave a remaining binding at 10 µM [7] of 54%, a remaining binding at 10 µM [8] of 86% and a remaining binding at 10 µM [9] of 60%. It also gave a remaining binding at 10 µM [10] of 79%, a remaining binding at 10 µM [11] of 72% and a remaining binding at 10 µM [12] of 89%. It also gave a remaining binding at 10 µM [13] of 94%, a remaining binding at 10 µM [14] of 53% and a remaining binding at 10 µM [15] of 78%. For the same molecule, the remaining binding at 10 µM [16] was 84%, the remaining binding at 10 µM [17] was 69% and the remaining binding at 10 µM [18] was 90%. It also gave a remaining binding at 10 µM [19] of 75%, a remaining binding at 10 µM [20] of 85% and a remaining binding at 10 µM [21] of 86%. The remaining binding at 10 µM [22] was 100%, the remaining binding at 10 µM [23] was 100% and the remaining binding at 10 µM [24] was 99%. It also gave a remaining binding at 10 µM [25] of 95%, a remaining binding at 10 µM [26] of 87% and a remaining binding at 10 µM [27] of 100%. For the same molecule, the remaining binding at 10 µM [28] was 100%, the remaining binding at 10 µM [29] was 71% and the remaining binding at 10 µM [30] was 92%.
Molecule COc1cc(N2CCC(N3CCN(C)CC3)CC2)ccc1Nc1ncc2c(n1)N(C)c1sc(C)nc1C(=O)N2C [Compound 5, 6-((2-methoxy-4-(4-(4-methylpiperazin-1-yl)piperidin-1-yl)phenyl)amino)-2,4,9-trimethyl-4,9-dihydro-10H-pyrimido[5,4-b]thiazolo[5,4-e][1,4]diazepin-10-one] has a remaining binding at 10 µM [1] of 40%, a remaining binding at 10 µM [2] of 88% and a remaining binding at 10 µM [3] of 100%. It also gave a remaining binding at 10 µM [4] of 100%, a remaining binding at 10 µM [5] of 77% and a remaining binding at 10 µM [6] of 95%. The remaining binding at 10 µM [7] was 88%, the remaining binding at 10 µM [8] was 94% and the remaining binding at 10 µM [9] was 83%. The remaining binding at 10 µM [10] was 100%, the remaining binding at 10 µM [11] was 97% and the remaining binding at 10 µM [12] was 100%. It also gave a remaining binding at 10 µM [13] of 100%, a remaining binding at 10 µM [14] of 99% and a remaining binding at 10 µM [15] of 92%. The remaining binding at 10 µM [16] was 100%, the remaining binding at 10 µM [17] was 87% and the remaining binding at 10 µM [18] was 88%. For the same molecule, the remaining binding at 10 µM [19] was 95%, the remaining binding at 10 µM [20] was 100% and the remaining binding at 10 µM [21] was 92%. The remaining binding at 10 µM [22] was 100%, the remaining binding at 10 µM [23] was 100% and the remaining binding at 10 µM [24] was 98%. For the same molecule, the remaining binding at 10 µM [25] was 97%, the remaining binding at 10 µM [26] was 89% and the remaining binding at 10 µM [27] was 100%. The remaining binding at 10 µM [28] was 100%, the remaining binding at 10 µM [29] was 97% and the remaining binding at 10 µM [30] was 100%.
